These are literature values, as cited in paper PMC11071479 (bioRxiv, 2024).

The series has as its target T1, MCT4 (Homo sapiens, UniProt O15427).
T1 sequence (O15427 2-465): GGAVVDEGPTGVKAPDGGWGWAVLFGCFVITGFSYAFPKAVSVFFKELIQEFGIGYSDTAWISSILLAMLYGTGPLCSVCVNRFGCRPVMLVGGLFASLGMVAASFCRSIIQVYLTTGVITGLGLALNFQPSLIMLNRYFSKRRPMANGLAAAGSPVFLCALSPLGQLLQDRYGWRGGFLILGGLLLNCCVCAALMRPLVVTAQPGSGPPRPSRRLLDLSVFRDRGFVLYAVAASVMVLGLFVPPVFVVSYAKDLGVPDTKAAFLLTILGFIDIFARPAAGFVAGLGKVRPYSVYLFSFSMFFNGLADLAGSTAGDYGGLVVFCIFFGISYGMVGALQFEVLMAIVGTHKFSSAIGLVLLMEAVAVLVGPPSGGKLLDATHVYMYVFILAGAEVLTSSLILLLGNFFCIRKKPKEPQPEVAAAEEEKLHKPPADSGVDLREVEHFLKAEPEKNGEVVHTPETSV
Description: MCT4 inhibition IC50 stated without citation. Type of series: cell-based.

Regarding VB253, the IC50 – broadly, the point on the concentration scale where inhibition reaches its midpoint – is about 2 nM.
